From patent publication US20260176320A1, “MODULATORS OF G-PROTEIN COUPLED RECEPTORS” (priority 2018, published 2026)
Like-named read-outs stand apart in the source and are kept apart here.

Legend:
mice [1] = experiment: Conditioned taste aversion (CTA) in mice; assay type: in vivo, mouse; conditions: s.c., 30 nmol/kg, saccharine preference vs vehicle
Method: A value of CTA=0.0-0.6 indicates significant aversion to a compound. The conditioned taste aversion assay measures the preference for a dilute saccharin solution that is associated with compound administration.
One week before start of experiment (Day-7), animals were transferred to single house double grommet cages. A 50 ml water bottle was placed, and consistently replaced when refilled in the same grommet to habituate the animal to a “water” side. After 7 days of baseline water consumption, animals began the taste preference procedure. On Day 1, the animals were weighed and deprived of water at […]. On acquisition day (Day 2), mice had access to a single bottle containing 0.15% saccharin solution, on the opposite side to the “water” habituated side and allowed to consume for 3 h, from 6 pm until 9 pm. The saccharine bottles were then removed and weighed to record the 3 h consumption. […] On Day 3, the water was removed and weighed at 6 pm. On Day 4, both saccharine and water bottles were weighed and returned simultaneously to respective grommet at 6 pm. On Day 5, the bottles were removed at 6 pm and weighed. Saccharine consumption was measured as a percent of the total amount of fluid consumed. The reduction of saccharin consumption during the retrieval was used as a measure of CTA strength. Liraglutide and semaglutide were used as positive controls.

GLP-1R [2] = molecular target: T1, GLP-1R (Homo sapiens, UniProt P43220); experiment: HitHunter cAMP assay (GLP-1R); assay type: cell-based; conditions: for Emax: read-out: (Emax) GLP-1R
Method in brief: (§1)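 Cells were resuspended in HBSS plus HEPES, IBMX (625 μM) and BSA, then dispensed with antibody at 10,000 per well. Agonists followed as 22-point twofold series, 30 min at room temperature. Antibody reagent and detection steps ran 1 h and overnight in the dark before luminescence.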

GIP-R = molecular target: T2, GIP-R (Homo sapiens, UniProt P48546); experiment: HitHunter cAMP assay (GIP-R); assay type: cell-based; conditions: for EC50: EC50 GIP-R/nM; for Emax: read-out: (Emax) GIP-R
T2 sequence (P48546 22-466): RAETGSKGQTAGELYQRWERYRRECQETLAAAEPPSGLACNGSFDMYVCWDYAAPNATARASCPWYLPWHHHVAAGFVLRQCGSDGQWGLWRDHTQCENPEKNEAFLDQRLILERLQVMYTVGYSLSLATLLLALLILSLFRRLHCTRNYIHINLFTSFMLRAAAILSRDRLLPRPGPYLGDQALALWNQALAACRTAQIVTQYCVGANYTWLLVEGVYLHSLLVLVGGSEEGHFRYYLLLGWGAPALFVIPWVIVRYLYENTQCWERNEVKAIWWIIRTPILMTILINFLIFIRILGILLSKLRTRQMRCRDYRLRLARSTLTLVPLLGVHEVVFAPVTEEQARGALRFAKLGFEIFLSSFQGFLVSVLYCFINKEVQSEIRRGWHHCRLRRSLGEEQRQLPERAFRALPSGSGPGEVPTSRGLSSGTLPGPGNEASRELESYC
Method in brief: as §1

GLP-1R [3] = molecular target: T1, GLP-1R; experiment: PathHunter β-arrestin assay; assay type: cell-based
Method in brief: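 Agonist concentration–response (22 points, 2-fold steps, duplicates) was run on cells plated the previous day in BSA-supplemented (0.2%) medium. Stimulation lasted 90 min at 37 °C, followed by a 3 h dark incubation with detection reagent at room temperature and a luminescence read.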

mice [4] = experiment: Glucose tolerance test (GTT); assay type: in vivo, mouse; conditions: 24 h GTT, s.c., percent of vehicle
Method in brief: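 Compounds diluted in PBS from 1 mM DMSO stocks and given subcutaneously 15 min (5-6 h fast), 4 h (16 h overnight fast), 16 h or 24 h before intraperitoneal glucose (2 g/kg). Tail blood glucose read at 10–120 min post-glucose, at least 6 mice per time-point. Glucose AUC over time determined.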

GLP-1R [5] = molecular target: T1, GLP-1R; conditions: general statement; cited from earlier work
mice [6] = conditions: general statement; cited from earlier work

T1 sequence (P43220 24-463): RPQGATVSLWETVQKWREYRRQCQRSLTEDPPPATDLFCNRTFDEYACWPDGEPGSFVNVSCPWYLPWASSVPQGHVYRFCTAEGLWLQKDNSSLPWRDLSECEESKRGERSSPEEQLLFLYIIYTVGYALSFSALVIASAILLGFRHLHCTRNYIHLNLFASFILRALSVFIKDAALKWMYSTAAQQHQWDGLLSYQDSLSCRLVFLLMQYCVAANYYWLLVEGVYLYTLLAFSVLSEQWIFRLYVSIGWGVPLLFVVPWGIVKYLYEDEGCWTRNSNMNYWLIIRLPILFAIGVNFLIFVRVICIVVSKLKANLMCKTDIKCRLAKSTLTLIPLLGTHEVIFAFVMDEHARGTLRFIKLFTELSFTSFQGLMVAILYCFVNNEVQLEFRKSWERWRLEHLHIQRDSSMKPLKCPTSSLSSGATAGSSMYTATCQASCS

Molecule	CTA score (mice [1])	EC50 (GLP-1R [2]; EC50 GLP-1R/nM, Table 3A, cAMP) [nM]	EC50 (GIP-R; Table 3A, cAMP) [nM]	Emax (GIP-R; Table 3A, cAMP) [%]	EC50 (GLP-1R [3]) [nM]	EC50 (GLP-1R [2]) [nM]	Emax (GLP-1R [2]) [%]	AUC score (mice [4]; dose range 2-5 nmol/kg)	Emax (GIP-R) [%]	EC50 (GLP-1R [2]; EC50 GLP-1R/nM, Table 3, cAMP) [nM]	Emax (GLP-1R [2]; Table 3, cAMP) [%]	Emax (GLP-1R [2]; Table 3A, cAMP) [%]	AUC score (mice [4]; dose range 5.1-15 nmol/kg)	EC50 (GIP-R; Table 3, cAMP) [nM]	Emax (GIP-R; Table 3, cAMP) [%]	β-arrestin recruitment (GLP-1R [5])	signal in conditioned taste aversion models (mice [6])
CCCCCCCCCCCCCCCC(=O)N[C@@H](CCC(=O)NCCCC[C@H](NC(=O)[C@H](CO)NC(=O)[C@@H]1CCCN1C(=O)[C@@H]1CCCN1C(=O)[C@@H]1CCCN1C(=O)[C@H](C)NC(=O)CNC(=O)[C@H](CO)NC(=O)[C@H](CO)NC(=O)[C@@H]1CCCN1C(=O)CNC(=O)CNC(=O)[C@H](C)NC(=O)[C@H](CC(C)C)NC(=O)[C@H](CC(C)C)NC(=O)[C@H](Cc1c[nH]c2ccccc12)NC(=O)[C@H](CC(N)=O)NC(=O)[C@@H](NC(=O)[C@H](Cc1ccccc1)NC(=O)[C@H](CCC(=O)O)NC(=O)C(C)(C)NC(=O)[C@H](C)NC(=O)[C@H](C)NC(=O)[C@H](CCC(N)=O)NC(=O)[C@H](CCCCN)NC(=O)[C@H](CC(=O)O)NC(=O)[C@H](CC(C)C)NC(=O)[C@H](Cc1ccc(O)cc1)NC(=O)[C@@H](NC(=O)[C@H](CO)NC(=O)[C@H](Cc1ccc(O)cc1)NC(=O)[C@H](CC(=O)O)NC(=O)[C@H](CO)NC(=O)[C@@H](NC(=O)[C@H](Cc1ccccc1)NC(=O)[C@@H](NC(=O)CNC(=O)[C@H](CCC(=O)O)NC(=O)CSCC(=O)NCCN1CCC(O)CC1=O)[C@@H](C)O)[C@@H](C)O)[C@@H](C)CC)C(C)C)C(N)=O)C(=O)O (single isomer, unassigned) [Compound 202]	4 (Score 4 = 76-100%)	< 0.1	0.1 to 1	67	> 1000												
CCCCCCCCCCCCCCCC(=O)N[C@@H](CCC(=O)NCCCC[C@H](NC(=O)[C@H](CO)NC(=O)[C@@H]1CCCN1C(=O)[C@@H]1CCCN1C(=O)[C@@H]1CCCN1C(=O)[C@H](C)NC(=O)CNC(=O)[C@H](CO)NC(=O)[C@H](CO)NC(=O)[C@@H]1CCCN1C(=O)CNC(=O)CNC(=O)[C@H](C)NC(=O)[C@H](CC(C)C)NC(=O)[C@H](CC(C)C)NC(=O)[C@H](Cc1c[nH]c2ccccc12)NC(=O)[C@H](CC(N)=O)NC(=O)[C@@H](NC(=O)[C@H](Cc1ccccc1)NC(=O)[C@H](CCC(=O)O)NC(=O)C(C)(C)NC(=O)[C@H](C)NC(=O)[C@H](C)NC(=O)[C@H](CCC(N)=O)NC(=O)[C@H](CCCCN)NC(=O)[C@H](CC(=O)O)NC(=O)[C@H](CC(C)C)NC(=O)[C@H](Cc1ccc(O)cc1)NC(=O)[C@@H](NC(=O)[C@H](CO)NC(=O)[C@H](Cc1ccc(O)cc1)NC(=O)[C@H](CC(=O)O)NC(=O)[C@H](CO)NC(=O)[C@@H](NC(=O)[C@H](Cc1ccccc1)NC(=O)[C@@H](NC(=O)CNC(=O)[C@H](CCC(=O)O)NC(=O)CCNC(=O)CN1CCCC1=O)[C@@H](C)O)[C@@H](C)O)[C@@H](C)CC)C(C)C)C(N)=O)C(=O)O [Compound 264]	1 (Score 1 = 0-25%)		1 to 10		< 10	< 0.1	100	3 (AUC score 3 = 51-75%)	90								
CCCCCCCCCCCCCCCC(=O)N[C@@H](CCC(=O)NCCCC[C@H](NC(=O)[C@H](CO)NC(=O)[C@@H]1CCCN1C(=O)[C@@H]1CCCN1C(=O)[C@@H]1CCCN1C(=O)[C@H](C)NC(=O)CNC(=O)[C@H](CO)NC(=O)[C@H](CO)NC(=O)[C@@H]1CCCN1C(=O)CNC(=O)CNC(=O)[C@H](C)NC(=O)[C@H](CC(C)C)NC(=O)[C@H](CC(C)C)NC(=O)[C@H](Cc1c[nH]c2ccccc12)NC(=O)[C@H](CC(N)=O)NC(=O)[C@@H](NC(=O)[C@H](Cc1ccccc1)NC(=O)[C@H](CCC(=O)O)NC(=O)C(C)(C)NC(=O)[C@H](C)NC(=O)[C@H](C)NC(=O)[C@H](CCC(N)=O)NC(=O)[C@H](CCCCN)NC(=O)[C@H](CC(=O)O)NC(=O)[C@H](CC(C)C)NC(=O)[C@H](Cc1ccc(O)cc1)NC(=O)[C@@H](NC(=O)[C@H](CO)NC(=O)[C@H](Cc1ccc(O)cc1)NC(=O)[C@H](CC(=O)O)NC(=O)[C@H](CO)NC(=O)[C@@H](NC(=O)[C@H](Cc1ccccc1)NC(=O)[C@@H](NC(=O)CNC(=O)[C@H](CCC(=O)O)NC(=O)CSCC(=O)NCCN1C(=O)[C@@H](C)[C@@H](C)C1=O)[C@@H](C)O)[C@@H](C)O)[C@@H](C)CC)C(C)C)C(N)=O)C(=O)O [Compound 96]	4 (Score 4 = 76-100%)	1 to 10	0.1 to 1	90	> 1000					1 to 10	94	94	4 (AUC score 4 = 76-100%)	0.1 to 1	90		
glucagon-like peptide-1 [GLP-1]																potent recruiters of β-arrestin	
CCCCCCCCCCCCCCCC(=O)N[C@@H](CCC(=O)NCCCC[C@H](NC(=O)[C@H](C)NC(=O)[C@H](C)NC(=O)[C@H](CCC(N)=O)NC(=O)CNC(=O)[C@H](CCC(=O)O)NC(=O)[C@H](CC(C)C)NC(=O)[C@H](Cc1ccc(O)cc1)NC(=O)[C@H](CO)NC(=O)[C@H](CO)NC(=O)[C@@H](NC(=O)[C@H](CC(=O)O)NC(=O)[C@H](CO)NC(=O)[C@@H](NC(=O)[C@H](Cc1ccccc1)NC(=O)[C@@H](NC(=O)CNC(=O)[C@H](CCC(=O)O)NC(=O)[C@H](C)NC(=O)[C@@H](N)Cc1cnc[nH]1)[C@@H](C)O)[C@@H](C)O)C(C)C)C(=O)N[C@@H](CCC(=O)O)C(=O)N[C@@H](Cc1ccccc1)C(=O)N[C@H](C(=O)N[C@@H](C)C(=O)N[C@@H](Cc1c[nH]c2ccccc12)C(=O)N[C@@H](CC(C)C)C(=O)N[C@H](C(=O)N[C@@H](CCCNC(=N)N)C(=O)NCC(=O)N[C@@H](CCCNC(=N)N)C(=O)NCC(=O)O)C(C)C)[C@@H](C)CC)C(=O)O [Liraglutide, liraglutide]																	strong signal in conditioned taste aversion models
CCCCCCCCCCCCCCCC(=O)N[C@@H](CCC(=O)NCCCC[C@H](NC(=O)[C@H](CO)NC(=O)[C@@H]1CCCN1C(=O)[C@@H]1CCCN1C(=O)[C@@H]1CCCN1C(=O)[C@H](C)NC(=O)CNC(=O)[C@H](CO)NC(=O)[C@H](CO)NC(=O)[C@@H]1CCCN1C(=O)CNC(=O)CNC(=O)[C@H](C)NC(=O)[C@H](CC(C)C)NC(=O)[C@H](CC(C)C)NC(=O)[C@H](Cc1c[nH]c2ccccc12)NC(=O)[C@H](CC(N)=O)NC(=O)[C@@H](NC(=O)[C@H](Cc1ccccc1)NC(=O)[C@H](CCC(=O)O)NC(=O)C(C)(C)NC(=O)[C@H](C)NC(=O)[C@H](C)NC(=O)[C@H](CCC(N)=O)NC(=O)[C@H](CCCCN)NC(=O)[C@H](CC(=O)O)NC(=O)[C@H](CC(C)C)NC(=O)[C@H](Cc1ccc(O)cc1)NC(=O)[C@@H](NC(=O)[C@H](CO)NC(=O)[C@H](Cc1ccc(O)cc1)NC(=O)[C@H](CC(=O)O)NC(=O)[C@H](CO)NC(=O)[C@@H](NC(=O)[C@H](Cc1ccccc1)NC(=O)[C@@H](NC(=O)CNC(=O)[C@H](CCC(=O)O)NC(=O)CSCC(=O)NCCN1C(=O)C[C@H](C)C1=O)[C@@H](C)O)[C@@H](C)O)[C@@H](C)CC)C(C)C)C(N)=O)C(=O)O [Compound 91]	4 (Score 4 = 76-100%)	1 to 10	1 to 10	85	> 1000			3 (AUC score 3 = 51-75%)		1 to 10	98	98		1 to 10	85		
